Read-outs that look alike come from different tables or passages of the source.
Key:
Type in all cases: cell-based
[1] = tested on: MCF7; experiment: NCI single dose screening (10 µM); conditions: Homo sapiens
[2] = tested on: K-562; experiment: NCI single dose screening (10 µM); conditions: Homo sapiens
[3] = tested on: HT-29; experiment: NCI single dose screening (10 µM); conditions: Homo sapiens
[4] = tested on: HOP-92; experiment: NCI single dose screening (10 µM); conditions: Homo sapiens
[5] = tested on: PC-3; experiment: NCI single dose screening (10 µM); conditions: Homo sapiens
[6] = tested on: RPMI-8226; experiment: NCI single dose screening (10 µM); conditions: Homo sapiens; RPMI-8226, Leukaemia, single dose 10^−5 M; read-out: GI% (cell growth inhibition percentage)
[7] = tested on: EKVX; experiment: NCI single dose screening (10 µM); conditions: Homo sapiens, read-out: GI% (cell growth inhibition percentage)
[8] = tested on: RXF 393; experiment: NCI single dose screening (10 µM); conditions: Homo sapiens
[9] = tested on: OVCAR-8; experiment: NCI single dose screening (10 µM); conditions: Homo sapiens
[10] = tested on: SN12C; experiment: NCI single dose screening (10 µM); conditions: Homo sapiens, read-out: GI% (cell growth inhibition percentage)
[11] = tested on: UACC-257; experiment: NCI single dose screening (10 µM); conditions: Homo sapiens
[12] = tested on: TK-10; experiment: NCI single dose screening (10 µM); conditions: Homo sapiens
[13] = tested on: SW-620; experiment: NCI single dose screening (10 µM); conditions: Homo sapiens
[14] = tested on: HOP-62; experiment: NCI single dose screening (10 µM); conditions: Homo sapiens
[15] = tested on: NCI-55 cancer cell line panel; experiment: NCI single dose screening (10 µM), whole panel; conditions: Homo sapiens, read-out: Mean inhibition, % (mean GI%)
[16] = tested on: UACC-62; experiment: NCI single dose screening (10 µM); conditions: Homo sapiens
[17] = tested on: M14; experiment: NCI single dose screening (10 µM); conditions: Homo sapiens
[18] = tested on: HL-60(TB); experiment: NCI single dose screening (10 µM); conditions: Homo sapiens
[19] = tested on: HCT-15; experiment: NCI single dose screening (10 µM); conditions: Homo sapiens
[20] = tested on: A549/ATCC; experiment: NCI single dose screening (10 µM); conditions: Homo sapiens
[21] = tested on: HCC-2998; experiment: NCI single dose screening (10 µM); conditions: Homo sapiens
[22] = tested on: DU-145; experiment: NCI single dose screening (10 µM); conditions: Homo sapiens
[23] = tested on: SNB-19; experiment: NCI single dose screening (10 µM); conditions: Homo sapiens
[24] = MCF7, Breast cancer, single dose 10^−5 M, read-out: GI% (cell growth inhibition percentage)
[25] = K562, K-562, Leukaemia, single dose 10^−5 M, read-out: GI% (cell growth inhibition percentage)
[26] = HT-29, Colon cancer, single dose 10^−5 M, read-out: GI% (cell growth inhibition percentage)
[27] = HOP-92, Non-small cell lung cancer, single dose 10^−5 M, read-out: GI% (cell growth inhibition percentage)
[28] = PC-3, Prostate cancer, single dose 10^−5 M, read-out: GI% (cell growth inhibition percentage)
[29] = Non-small cell lung cancer, single dose 10^−5 M
[30] = RXF 393, Renal cancer, single dose 10^−5 M, read-out: GI% (cell growth inhibition percentage)
[31] = OVCAR-8, Ovarian cancer, single dose 10^−5 M, read-out: GI% (cell growth inhibition percentage)
[32] = Renal cancer, single dose 10^−5 M
[33] = UACC-257, Melanoma, single dose 10^−5 M, read-out: GI% (cell growth inhibition percentage)
[34] = TK-10, Renal cancer, single dose 10^−5 M, read-out: GI% (cell growth inhibition percentage)
[35] = SW-620, Colon cancer, single dose 10^−5 M, read-out: GI% (cell growth inhibition percentage)
[36] = HOP-62, Non-small cell lung cancer, single dose 10^−5 M, read-out: GI% (cell growth inhibition percentage)
[37] = mean over NCI-55 cell lines, single dose 10^−5 M
[38] = UACC-62, Melanoma, single dose 10^−5 M, read-out: GI% (cell growth inhibition percentage)
[39] = M14, Melanoma, single dose 10^−5 M, read-out: GI% (cell growth inhibition percentage)
[40] = HL-60(TB), Leukaemia, single dose 10^−5 M, read-out: GI% (cell growth inhibition percentage)
[41] = HCT-15, Colon cancer, single dose 10^−5 M, read-out: GI% (cell growth inhibition percentage)
[42] = A549/ATCC, Non-small cell lung cancer, single dose 10^−5 M, read-out: GI% (cell growth inhibition percentage)
[43] = HCC-2998, Colon cancer, single dose 10^−5 M, read-out: GI% (cell growth inhibition percentage)
[44] = DU-145, Prostate cancer, single dose 10^−5 M, read-out: GI% (cell growth inhibition percentage)
[45] = SNB-19, CNS cancer, single dose 10^−5 M, read-out: GI% (cell growth inhibition percentage)
[46] = HL-60, read-out: GI% (cell growth inhibition percentage)
[47] = MCF7, read-out: GI% (cell growth inhibition percentage)
[48] = K562, read-out: GI% (cell growth inhibition percentage)
[49] = HT-29, read-out: GI% (cell growth inhibition percentage)
[50] = HOP-92, read-out: GI% (cell growth inhibition percentage)
[51] = PC-3, read-out: GI% (cell growth inhibition percentage)
[52] = RXF 393, read-out: GI% (cell growth inhibition percentage)
[53] = OVCAR-8, read-out: GI% (cell growth inhibition percentage)
[54] = UACC-257, read-out: GI% (cell growth inhibition percentage)
[55] = TK-10, read-out: GI% (cell growth inhibition percentage)
[56] = SW-620, read-out: GI% (cell growth inhibition percentage)
[57] = HOP-62, read-out: GI% (cell growth inhibition percentage)
[58] = UACC-62, read-out: GI% (cell growth inhibition percentage)
[59] = M14, read-out: GI% (cell growth inhibition percentage)
[60] = HCT-15, read-out: GI% (cell growth inhibition percentage)
[61] = A549, read-out: GI% (cell growth inhibition percentage)
[62] = HCC 2998, read-out: GI% (cell growth inhibition percentage)
[63] = DU-145, read-out: GI% (cell growth inhibition percentage)
[64] = SNB-19, read-out: GI% (cell growth inhibition percentage)

Cc1c(C(=O)N/N=C2\C(=O)Nc3ccc(F)cc32)oc2ccccc12 [Compound 5b]
inhibition at 10 µM [1, 24]: 19% | inhibition at 10 µM [2, 25]: < 10% | inhibition at 10 µM [3, 26]: < 10% | inhibition at 10 µM [4, 27]: < 10% | inhibition at 10 µM [5, 28]: < 10% | inhibition at 10 µM [6]: < 10% | inhibition at 10 µM [7, 29]: 29.6% | inhibition at 10 µM [8, 30]: < 10% | inhibition at 10 µM [9, 31]: < 10% | inhibition at 10 µM [10, 32]: < 10% | inhibition at 10 µM [11, 33]: < 10% | inhibition at 10 µM [12, 34]: < 10% | inhibition at 10 µM [13, 35]: < 10% | inhibition at 10 µM [14, 36]: < 10% | inhibition at 10 µM [15, 37]: 0.75% | inhibition at 10 µM [16, 38]: 10.9% | inhibition at 10 µM [17, 39]: < 10% | inhibition at 10 µM [18, 40]: < 10% | inhibition at 10 µM [19, 41]: < 10% | inhibition at 10 µM [20, 42]: < 10% | inhibition at 10 µM [21, 43]: < 10% | inhibition at 10 µM [22, 44]: < 10% | inhibition at 10 µM [23, 45]: < 10%

COc1ccc2c(c1)/C(=N/NC(=O)c1oc3ccccc3c1C)C(=O)N2 [Compound 5d]
inhibition at 10 µM [1, 24]: 77.1% | inhibition at 10 µM [2, 25]: 57.5% | inhibition at 10 µM [3, 26]: 72.7% | inhibition at 10 µM [4, 27]: 144% | inhibition at 10 µM [5, 28]: 78.2% | inhibition at 10 µM [7, 29]: 62.7% | inhibition at 10 µM [8, 30]: 136% | inhibition at 10 µM [9, 31]: 62.2% | inhibition at 10 µM [10, 32]: 65.1% | inhibition at 10 µM [11, 33]: 50% | inhibition at 10 µM [12, 34]: 194% | inhibition at 10 µM [13, 35]: 64.8% | inhibition at 10 µM [14, 36]: 124% | inhibition at 10 µM [15, 37]: 87.3% | inhibition at 10 µM [16, 38]: 65.7% | inhibition at 10 µM [17, 39]: 71.3% | inhibition at 10 µM [18, 46]: 46.1% | inhibition at 10 µM [19, 41]: 50.9% | inhibition at 10 µM [20, 42]: 124% | inhibition at 10 µM [21, 43]: 56.5% | inhibition at 10 µM [22, 44]: 82.4% | inhibition at 10 µM [23, 45]: 57.3%

Cc1c(C(=O)N/N=C2\C(=O)N(C)c3ccccc32)oc2ccccc12 [Compound 7a]
inhibition at 10 µM [1, 24]: 28.2% | inhibition at 10 µM [2, 25]: < 10% | inhibition at 10 µM [3, 26]: < 10% | inhibition at 10 µM [4, 27]: < 10% | inhibition at 10 µM [5, 28]: < 10% | inhibition at 10 µM [7, 29]: 25.1% | inhibition at 10 µM [8, 30]: < 10% | inhibition at 10 µM [9, 31]: < 10% | inhibition at 10 µM [10, 32]: < 10% | inhibition at 10 µM [11, 33]: < 10% | inhibition at 10 µM [12, 34]: < 10% | inhibition at 10 µM [13, 35]: 30.6% | inhibition at 10 µM [14, 36]: < 10% | inhibition at 10 µM [15, 37]: 0.09% | inhibition at 10 µM [16, 38]: < 10% | inhibition at 10 µM [17, 39]: < 10% | inhibition at 10 µM [18, 40]: < 10% | inhibition at 10 µM [19, 41]: < 10% | inhibition at 10 µM [20, 42]: < 10% | inhibition at 10 µM [21, 43]: < 10% | inhibition at 10 µM [22, 44]: < 10% | inhibition at 10 µM [23, 45]: < 10%

CCCN1C(=O)/C(=N\NC(=O)c2oc3ccccc3c2C)c2ccccc21 [Compound 7b]
inhibition at 10 µM [1, 47]: 25% | inhibition at 10 µM [2, 48]: 11.4% | inhibition at 10 µM [3, 49]: < 10% | inhibition at 10 µM [4, 50]: < 10% | inhibition at 10 µM [5, 51]: 10.8% | inhibition at 10 µM [7]: 32.4% | inhibition at 10 µM [8, 52]: < 10% | inhibition at 10 µM [9, 53]: < 10% | inhibition at 10 µM [10]: < 10% | inhibition at 10 µM [11, 54]: < 10% | inhibition at 10 µM [12, 55]: < 10% | inhibition at 10 µM [13, 56]: < 10% | inhibition at 10 µM [14, 57]: 18.1% | inhibition at 10 µM [15]: 5.18% | inhibition at 10 µM [16, 58]: 16.9% | inhibition at 10 µM [17, 59]: < 10% | inhibition at 10 µM [18, 46]: 10.9% | inhibition at 10 µM [19, 60]: < 10% | inhibition at 10 µM [20, 61]: < 10% | inhibition at 10 µM [21, 62]: < 10% | inhibition at 10 µM [22, 63]: < 10% | inhibition at 10 µM [23, 64]: < 10%

CCCN1C(=O)/C(=N\NC(=O)c2oc3ccccc3c2C)c2cc(Br)ccc21 [Compound 7g]
inhibition at 10 µM [1, 47]: 13.2% | inhibition at 10 µM [2, 48]: < 10% | inhibition at 10 µM [3, 49]: < 10% | inhibition at 10 µM [4, 50]: < 10% | inhibition at 10 µM [5, 51]: < 10% | inhibition at 10 µM [7]: 18.1% | inhibition at 10 µM [8, 52]: < 10% | inhibition at 10 µM [9, 53]: < 10% | inhibition at 10 µM [10]: < 10% | inhibition at 10 µM [11, 54]: < 10% | inhibition at 10 µM [12, 55]: < 10% | inhibition at 10 µM [13, 56]: < 10% | inhibition at 10 µM [14, 57]: < 10% | inhibition at 10 µM [15]: -0.8% | inhibition at 10 µM [16, 58]: < 10% | inhibition at 10 µM [17, 59]: < 10% | inhibition at 10 µM [18, 46]: < 10% | inhibition at 10 µM [19, 60]: < 10% | inhibition at 10 µM [20, 61]: < 10% | inhibition at 10 µM [21, 62]: < 10% | inhibition at 10 µM [22, 63]: < 10% | inhibition at 10 µM [23, 64]: < 10%

Source: publication PMC8245078, “Development of novel benzofuran-isatin conjugates as potential antiproliferative agents with apoptosis inducing mechanism in Colon cancer” (Journal of Enzyme Inhibition and Medicinal Chemistry, 2021)
